System: 699152-130-R-J1-PDC complex spheroid viability
Assay: Anticancer human tumor 699152-130-R-J1-PDC patient-derived pancreatic carcinoma cell line growth inhibition [POLQ]
Details: for IC50: curve of first compound; for viability, T/C: stronger effect = lower value; active means viability on the fitted dose curve at most 10% of control; inactive means the rest
Summary of the method: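 Patient-derived tumour cells were co-cultured with HUVEC and mesenchymal stem cells as multicellular spheroids at 37 °C. They were treated with POLQ inhibitors (novobiocin, ART-558, RP6685) alone or combined with other agents. Top concentrations were at or near clinical Cmax (otherwise 10 microM; SN-38 at 1 microM), decreasing in half-log steps.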
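Further: spheroids exposed to agents for 7 days before viability reading.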
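Wherever viability, T/C is given: percent of DMSO vehicle control viability so 100% = vehicle and 0% = no viable signal.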

CC(=O)O[C@H]1C(=O)[C@@]2(C)[C@H]([C@H](OC(=O)c3ccccc3)[C@]3(O)C[C@H](OC(=O)[C@H](O)[C@@H](NC(=O)c4ccccc4)c4ccccc4)C(C)=C1C3(C)C)[C@]1(OC(C)=O)CO[C@@H]1C[C@@H]2O + Cc1cccc(N(C)C(=O)C2C(O)CCN2c2nc(C)cc(C(F)(F)F)c2C#N)c1
inactive: viability, T/C (second compound 0.0316 µM, first compound 0.00949 µM) 83.5% | viability, T/C (second compound 0.0316 µM, first compound 0.03 µM) 57.6% | viability, T/C (second compound 0.0316 µM, first compound 0.0949 µM) 56.1% | viability, T/C (second compound 0.0316 µM, first compound 0.3 µM) 56.9% | viability, T/C (second compound 0.0316 µM, first compound 0.949 µM) 67% | viability, T/C (second compound 0.0316 µM, first compound 3 µM) 65.9% | viability, T/C (second compound 0.1 µM, first compound 0.00949 µM) 79.7% | viability, T/C (second compound 0.1 µM, first compound 0.03 µM) 57.1% | viability, T/C (second compound 0.1 µM, first compound 0.0949 µM) 51% | viability, T/C (second compound 0.1 µM, first compound 0.3 µM) 57.7% | viability, T/C (second compound 0.1 µM, first compound 0.949 µM) 72.2% | viability, T/C (second compound 0.1 µM, first compound 3 µM) 64.9% | viability, T/C (second compound 0.316 µM, first compound 0.00949 µM) 74.5% | viability, T/C (second compound 0.316 µM, first compound 0.03 µM) 60.9% | viability, T/C (second compound 0.316 µM, first compound 0.0949 µM) 53.3% | viability, T/C (second compound 0.316 µM, first compound 0.3 µM) 59.4% | viability, T/C (second compound 0.316 µM, first compound 0.949 µM) 64.9% | viability, T/C (second compound 0.316 µM, first compound 3 µM) 64.1% | viability, T/C (second compound 1 µM, first compound 0.00949 µM) 81.2% | viability, T/C (second compound 1 µM, first compound 0.03 µM) 54.8% | viability, T/C (second compound 1 µM, first compound 0.0949 µM) 57.9% | viability, T/C (second compound 1 µM, first compound 0.3 µM) 61.3% | viability, T/C (second compound 1 µM, first compound 0.949 µM) 62.4% | viability, T/C (second compound 1 µM, first compound 3 µM) 71.8% | viability, T/C (second compound 3.16 µM, first compound 0.00949 µM) 82.8% | viability, T/C (second compound 3.16 µM, first compound 0.03 µM) 62.1% | viability, T/C (second compound 3.16 µM, first compound 0.0949 µM) 58.8% | viability, T/C (second compound 3.16 µM, first compound 0.3 µM) 65.2% | viability, T/C (second compound 3.16 µM, first compound 0.949 µM) 69.7% | viability, T/C (second compound 3.16 µM, first compound 3 µM) 79.1% | viability, T/C (second compound 10 µM, first compound 0.00949 µM) 84% | viability, T/C (second compound 10 µM, first compound 0.03 µM) 57% | viability, T/C (second compound 10 µM, first compound 0.0949 µM) 69.1% | viability, T/C (second compound 10 µM, first compound 0.3 µM) 65.9% | viability, T/C (second compound 10 µM, first compound 0.949 µM) 72.1% | viability, T/C (second compound 10 µM, first compound 3 µM) 82.8%
> 3 µM: IC50 (second compound 0.0316 µM) | IC50 (second compound 0.1 µM) | IC50 (second compound 0.316 µM) | IC50 (second compound 1 µM) | IC50 (second compound 3.16 µM) | IC50 (second compound 10 µM)

COc1cc(C2c3cc4c(cc3C(OC3OC5COC(C)OC5C(O)C3O)C3COC(=O)C23)OCO4)cc(OC)c1O (centres undefined) + COC1C(OC(N)=O)C(O)C(Oc2ccc3c(O)c(NC(=O)c4ccc(O)c(CC=C(C)C)c4)c(=O)oc3c2C)OC1(C)C
4.05 µM: IC50 (second compound 0.316 µM)
inactive: viability, T/C (second compound 0.0316 µM, first compound 0.0316 µM) 92.1% | viability, T/C (second compound 0.0316 µM, first compound 0.1 µM) 99.5% | viability, T/C (second compound 0.0316 µM, first compound 0.316 µM) 66.4% | viability, T/C (second compound 0.0316 µM, first compound 1 µM) 72.5% | viability, T/C (second compound 0.0316 µM, first compound 3.16 µM) 51.3% | viability, T/C (second compound 0.0316 µM, first compound 10 µM) 40.2% | viability, T/C (second compound 0.1 µM, first compound 0.0316 µM) 83.9% | viability, T/C (second compound 0.1 µM, first compound 0.1 µM) 94% | viability, T/C (second compound 0.1 µM, first compound 0.316 µM) 71.1% | viability, T/C (second compound 0.1 µM, first compound 1 µM) 61.1% | viability, T/C (second compound 0.1 µM, first compound 3.16 µM) 54.3% | viability, T/C (second compound 0.1 µM, first compound 10 µM) 38.2% | viability, T/C (second compound 0.316 µM, first compound 0.0316 µM) 99.5% | viability, T/C (second compound 0.316 µM, first compound 0.1 µM) 80.4% | viability, T/C (second compound 0.316 µM, first compound 0.316 µM) 74.4% | viability, T/C (second compound 0.316 µM, first compound 1 µM) 70.8% | viability, T/C (second compound 0.316 µM, first compound 3.16 µM) 46.8% | viability, T/C (second compound 0.316 µM, first compound 10 µM) 42.7% | viability, T/C (second compound 1 µM, first compound 0.0316 µM) 94.5% | viability, T/C (second compound 1 µM, first compound 0.1 µM) 87.8% | viability, T/C (second compound 1 µM, first compound 0.316 µM) 75% | viability, T/C (second compound 1 µM, first compound 1 µM) 60.4% | viability, T/C (second compound 1 µM, first compound 3.16 µM) 47.7% | viability, T/C (second compound 1 µM, first compound 10 µM) 38.4% | viability, T/C (second compound 3.16 µM, first compound 0.0316 µM) 93% | viability, T/C (second compound 3.16 µM, first compound 0.1 µM) 86.2% | viability, T/C (second compound 3.16 µM, first compound 0.316 µM) 75.3% | viability, T/C (second compound 3.16 µM, first compound 1 µM) 66.7% | viability, T/C (second compound 3.16 µM, first compound 3.16 µM) 49.7% | viability, T/C (second compound 3.16 µM, first compound 10 µM) 46% | viability, T/C (second compound 10 µM, first compound 0.0316 µM) 87.3% | viability, T/C (second compound 10 µM, first compound 0.1 µM) 85.6% | viability, T/C (second compound 10 µM, first compound 0.316 µM) 78.5% | viability, T/C (second compound 10 µM, first compound 1 µM) 62.6% | viability, T/C (second compound 10 µM, first compound 3.16 µM) 50.8% | viability, T/C (second compound 10 µM, first compound 10 µM) 40.6%
3.17 µM: IC50 (second compound 0.1 µM)
2.51 µM: IC50 (second compound 1 µM)
4.61 µM: IC50 (second compound 3.16 µM)
3.04 µM: IC50 (second compound 10 µM)
4.01 µM: IC50 (second compound 0.0316 µM)

— PubChem BioAssay AID1963835 (Molecular Pharmacology Branch, DTP, NCI, 2024)
